These results are taken from patent publication US20110312941A1, “1,4-DISUBSTITUTED PIPERIDINES AS VASOPRESSIN RECEPTOR VIA ANTAGONISTS” (VANTIA LIMITED, priority 2009, published 2011).

For this test, the target named is T1, cloned human V1a receptor (Homo sapiens, UniProt P37288).
T1 construct: host or cells: human brain astrocytoma 1321N1 cells
Put plainly: in vitro functional calcium mobilisation assay (FLIPR), antagonist activity, 1321N1 cells, 250 pM AVP. It counts as cell-based. As to conditions: functional pKi derived from pIC50 (Equation 1), FLIPR Ca2+ mobilisation, 1321N1 cells expressing cloned human V1a receptor, read-out: Mean fpKi (Human V1a) (converted). As for the experimental part:
The primary assay which may be used to determine the ability of the compounds of formula (1) to inhibit the vasopressin V1a receptor is an in vitro functional calcium mobilisation assay (FLIPR) that measures antagonist activity at a cloned human V1a receptor. The assay is described below.
The antagonist activity of compounds of formula (1) were determined in a Calcium (Ca2+) mobilisation assay using whole cells (human brain astrocytoma 1321N1 cells, ex Perkin Elmer) genetically modified to stably express a cloned human V1a receptor. Dose response curves were determined by displacement of a single concentration of agonist (250 pM AVP, ex Sigma) with increasing concentrations of compound. A pIC50 value is determined by non-linear regression to a 4-parameter logistic equation and a functional pKi (fpKi) derived using Equation 1.
where A=agonist single conc, and A50=the agonist EC50.

The structures appear in SMILES notation.

T1 sequence (P37288 whole entry): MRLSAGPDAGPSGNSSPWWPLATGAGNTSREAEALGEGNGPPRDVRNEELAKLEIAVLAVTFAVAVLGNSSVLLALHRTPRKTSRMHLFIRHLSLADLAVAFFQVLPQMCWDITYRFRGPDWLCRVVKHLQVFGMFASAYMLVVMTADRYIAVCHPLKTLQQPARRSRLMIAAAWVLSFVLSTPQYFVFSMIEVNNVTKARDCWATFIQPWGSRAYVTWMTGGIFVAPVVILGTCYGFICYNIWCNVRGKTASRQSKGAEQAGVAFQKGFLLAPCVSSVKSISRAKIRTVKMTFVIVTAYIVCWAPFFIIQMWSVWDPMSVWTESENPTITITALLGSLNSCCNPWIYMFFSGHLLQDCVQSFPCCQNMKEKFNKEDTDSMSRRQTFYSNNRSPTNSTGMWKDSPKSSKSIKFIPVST

For `O=C(C1CCN(c2ccccn2)CC1)N1CCc2nc(N3CCOCC3)[nH]c2-c2cc(F)ccc21` [Example 13], the Ki was 7.94 nM.

In the case of `COc1cccc(N2CCC(C(=O)N3CCc4nc(C)[nH]c4-c4cc(Cl)ccc43)CC2)c1` [Example 93], the Ki is 2.51 nM.

`COc1cccnc1N1CCC(C(=O)N2Cc3cnn(C)c3Nc3cc(Cl)ccc32)CC1` [Example 119]: the Ki is 19.1 nM.

For `O=C(C1CCN(c2cnccn2)CC1)N1Cc2cccn2Cc2ccccc21` [Example 148], the Ki was 28.2 nM.

As for `COc1cccc(N2CCC(C(=O)N3CCc4nc(C5CCOCC5)[nH]c4-c4cc(C)ccc43)CC2)n1` [Example 66], the Ki was 30.9 nM.

Regarding `Cc1cncc(N2CCC(C(=O)N3CCc4nc(N5CCOCC5)[nH]c4-c4cc(C)ccc43)CC2)c1` [Example 70], the Ki is 6.61 nM.

For `CCn1ncc2c1Nc1cc(Cl)ccc1N(C(=O)C1CCN(c3ccc(C)cn3)CC1)C2` [Example 122], the Ki is 0.603 nM.

With `Cc1ccc2c(c1)Cn1cccc1CN2C(=O)C1CCN(c2ccccn2)CC1` [Example 152], the Ki is 0.631 nM.

On to `O=C(C1CCN(c2ccccn2)CC1)N1CCc2nc(C3CCCCC3)[nH]c2-c2cc(Cl)ccc21` [Example 49], for which the Ki was 23.4 nM.

Consider `Cc1ccc(N2CCC(C(=O)N3Cc4cccn4Cc4ccccc43)CC2)cc1` [Example 161], for which the Ki was 1.12 nM.

Consider `O=C(C1CCN(c2ncccn2)CC1)N1Cc2cnn(-c3ccccc3)c2Nc2cc(Cl)ccc21` [Example 104], for which the Ki was 14.1 nM.

As to `Cc1ccc(N2CCC(C(=O)N3Cc4cccn4Cc4ccccc43)CC2)nc1` [Example 145], the Ki was 15.1 nM.

As to `Cc1ccc(N2CCC(C(=O)N3CCc4[nH]c(CC(C)C)nc4-c4cc(C)ccc43)CC2)nc1` [Example 29], the Ki was 2.69 nM.

For `Cc1nc2c([nH]1)-c1cc(Cl)ccc1N(C(=O)C1CCN(c3ccccc3C)CC1)CC2` [Example 89], the Ki was 25.7 nM.

`COc1ccccc1N1CCC(C(=O)N2CCc3nc(C)[nH]c3-c3cc(Cl)ccc32)CC1` [Example 92]: the Ki was 22.9 nM.

For the compound `Cc1ccc2c(c1)-c1[nH]c(C3CC3)nc1CCN2C(=O)C1CCN(c2ccccn2)CC1` [Example 24], the Ki was 8.71 nM.

`Cn1ncc2c1Nc1cc(Cl)ccc1N(C(=O)C1CCN(c3ccccc3F)CC1)C2` [Example 134]: the Ki was 1.74 nM.

Consider `COc1cccnc1N1CCC(C(=O)N2CCc3nc(N4CCOCC4)[nH]c3-c3cc(C)ccc32)CC1` [Example 3, (3′-Methoxy-3,4,5,6-tetrahydro-2H-[1,2′]bipyridinyl-4-yl)-(9-methyl-2-morpholin-4-yl-4,5-dihydro-1H-1,3,6-triaza-benzo[e]azulen-6-yl)-methanone], for which the Ki was 0.977 nM.

`Cn1ncc2c1Nc1cc(Cl)ccc1N(C(=O)C1CCN(c3ncccn3)CC1)C2` [Example 103, (6-Chloro-3-methyl-4,10-dihydro-3H-2,3,4,9-tetraaza-benzo[f]azulen-9-yl)-(1-pyrimidin-2-yl-piperidin-4-yl)-methanone]: the Ki is 75.9 nM.

Consider `CCCc1nc2c([nH]1)-c1cc(C)ccc1N(C(=O)C1CCN(c3ncccc3C)CC1)CC2` [Example 21], for which the Ki was 4.47 nM.

Turning to `O=C(C1CCN(c2ccccc2)CC1)N1CCc2nc(-c3ccccc3F)[nH]c2-c2cc(Cl)ccc21` [Example 80], the Ki was 81.3 nM.

For the compound `O=C(C1CCN(c2ccccn2)CC1)N1Cc2cccn2Cc2cc(F)ccc21` [Example 150], the Ki was 1.91 nM.

For `Cc1ccc2c(c1)Nc1c(cnn1C)CN2C(=O)C1CCN(c2ccccn2)CC1` [Example 109], the Ki is 12.9 nM.

As to `Cc1ccnc(N2CCC(C(=O)N3CCc4nc(N5CCOCC5)[nH]c4-c4cc(Cl)ccc43)CC2)c1` [Example 58], the Ki is 0.646 nM.

On to `CCc1ccc(N2CCC(C(=O)N3Cc4cnn(C)c4Nc4cc(Cl)ccc43)CC2)cc1` [Example 139], for which the Ki is 0.912 nM.

`CN1CCN(c2nc3c([nH]2)-c2cc(Cl)ccc2N(C(=O)C2CCN(c4ccccn4)CC2)CC3)CC1` [Example 51]: the Ki is 17.4 nM.

Turning to `CCCc1nc2c([nH]1)-c1cc(C)ccc1N(C(=O)C1CCN(c3cc(C)ccn3)CC1)CC2` [Example 22], the Ki was 2.04 nM.

As for `O=C(C1CCN(c2cccc(F)c2)CC1)N1Cc2cccn2Cc2ccccc21` [Example 155], the Ki was 4.57 nM.

Turning to `Cc1ccc2c(c1)Nc1c(cnn1C)CN2C(=O)C1CCN(c2ncccc2C)CC1` [Example 110], the Ki was 4.57 nM.

As to `CCc1nc2c([nH]1)-c1cc(Cl)ccc1N(C(=O)C1CCN(c3ccccc3)CC1)CC2` [Example 73], the Ki is 6.17 nM.

With `O=C(C1CCN(c2ccccc2)CC1)N1Cc2cccn2Cc2cc(F)ccc21` [Example 151], the Ki was 0.794 nM.

Regarding `Cn1ncc2c1Nc1ccccc1N(C(=O)C1CCN(c3ncccn3)CC1)C2` [Example 98], the Ki was 141 nM.

As for `O=C(C1CCN(c2nccc(C(F)(F)F)n2)CC1)N1Cc2cnn(C3CCCCC3)c2Nc2ccccc21` [Example 99], the Ki is 35.5 nM.

`Cc1ccc(N2CCC(C(=O)N3CCc4nc(N5CCOCC5)[nH]c4-c4cc(Cl)ccc43)CC2)nc1` [Example 59]: the Ki is 0.794 nM.

Turning to `CC(C)c1ccc(N2CCC(C(=O)N3Cc4cccn4Cc4ccccc43)CC2)cc1` [Example 167], the Ki is 3.63 nM.

Consider `O=C(C1CCN(c2ccccc2)CC1)N1CCc2nc(C3CCCCC3)[nH]c2-c2cc(Cl)ccc21` [Example 76], for which the Ki was 28.2 nM.

For `Cc1ccc(N2CCC(C(=O)N3Cc4cnn(-c5ccccc5)c4Nc4cc(Cl)ccc43)CC2)nc1` [Example 123], the Ki was 2 nM.

On to `O=C(C1CCN(c2ccccc2)CC1)N1CCc2nc(N3CCCCC3)[nH]c2-c2cc(Cl)ccc21` [Example 77], for which the Ki was 18.2 nM.

As for `Cc1ccc(N2CCC(C(=O)N3CCc4nc(C5CC5)[nH]c4-c4cc(C)ccc43)CC2)nc1` [Example 25], the Ki was 1.51 nM.

On to `COc1ccnc(N2CCC(C(=O)N3CCc4nc(N5CCOCC5)[nH]c4-c4cc(C)ccc43)CC2)c1` [Example 33], for which the Ki is 0.977 nM.

For `COc1ccc(N2CCC(C(=O)N3Cc4cnn(C)c4Nc4cc(C)ccc43)CC2)cc1` [Example 131], the Ki is 3.09 nM.

Consider `Cc1nc2c([nH]1)-c1cc(Cl)ccc1N(C(=O)C1CCN(c3ccccc3)CC1)CC2` [Example 72], for which the Ki is 9.12 nM.

In the case of `Cc1nc2c([nH]1)-c1cc(Cl)ccc1N(C(=O)C1CCN(c3ccc(F)cc3)CC1)CC2` [Example 85], the Ki was 11 nM.

As to `CCCc1nc2c([nH]1)-c1cc(C)ccc1N(C(=O)C1CCN(c3ccccn3)CC1)CC2` [Example 20], the Ki was 12.3 nM.

Turning to `Cc1ccc(N2CCC(C(=O)N3CCc4nc(N5CCN(C)CC5)[nH]c4-c4cc(Cl)ccc43)CC2)nc1` [Example 52], the Ki was 1.1 nM.

Turning to `Cc1cccnc1N1CCC(C(=O)N2CCc3nc(N4CCOCC4)[nH]c3-c3cc(F)ccc32)CC1` [Example 14], the Ki was 2.51 nM.

Take `CCc1ccc(N2CCC(C(=O)N3Cc4cccn4Cc4ccccc43)CC2)cc1` [Example 165]: the Ki was 1.55 nM.

`Cc1ccc(N2CCC(C(=O)N3CCc4nc(N5CCN(C)CC5)[nH]c4-c4cc(C)ccc43)CC2)nc1` [Example 30]: the Ki is 1.78 nM.

With `Cc1ccc(N2CCC(C(=O)N3CCc4nc(C)[nH]c4-c4cc(Cl)ccc43)CC2)cc1` [Example 91], the Ki was 1.26 nM.
